In article PMC3632306 (Journal of medicinal chemistry, 2013):
Entries after “also recorded” stand apart in the source; their conditions may differ.

Columns and labels:
U87-MG cells = assay: U87-MG cell viability; type: cell-based, human; conditions: concentrations up to 10 μM, relative to DMSO, 10% FBS
[1] = test system: U87-MG glioblastoma cells; assay: Invasive migration in U87-MG cells; type: cell-based, human; conditions: for Invasive migration in U87-MG cells: 100 nM to 10 μM, 48 hours
PLD1 = target: T1, PLD1 (Homo sapiens, UniProt Q13393)
T1 sequence (Q13393 1-1074): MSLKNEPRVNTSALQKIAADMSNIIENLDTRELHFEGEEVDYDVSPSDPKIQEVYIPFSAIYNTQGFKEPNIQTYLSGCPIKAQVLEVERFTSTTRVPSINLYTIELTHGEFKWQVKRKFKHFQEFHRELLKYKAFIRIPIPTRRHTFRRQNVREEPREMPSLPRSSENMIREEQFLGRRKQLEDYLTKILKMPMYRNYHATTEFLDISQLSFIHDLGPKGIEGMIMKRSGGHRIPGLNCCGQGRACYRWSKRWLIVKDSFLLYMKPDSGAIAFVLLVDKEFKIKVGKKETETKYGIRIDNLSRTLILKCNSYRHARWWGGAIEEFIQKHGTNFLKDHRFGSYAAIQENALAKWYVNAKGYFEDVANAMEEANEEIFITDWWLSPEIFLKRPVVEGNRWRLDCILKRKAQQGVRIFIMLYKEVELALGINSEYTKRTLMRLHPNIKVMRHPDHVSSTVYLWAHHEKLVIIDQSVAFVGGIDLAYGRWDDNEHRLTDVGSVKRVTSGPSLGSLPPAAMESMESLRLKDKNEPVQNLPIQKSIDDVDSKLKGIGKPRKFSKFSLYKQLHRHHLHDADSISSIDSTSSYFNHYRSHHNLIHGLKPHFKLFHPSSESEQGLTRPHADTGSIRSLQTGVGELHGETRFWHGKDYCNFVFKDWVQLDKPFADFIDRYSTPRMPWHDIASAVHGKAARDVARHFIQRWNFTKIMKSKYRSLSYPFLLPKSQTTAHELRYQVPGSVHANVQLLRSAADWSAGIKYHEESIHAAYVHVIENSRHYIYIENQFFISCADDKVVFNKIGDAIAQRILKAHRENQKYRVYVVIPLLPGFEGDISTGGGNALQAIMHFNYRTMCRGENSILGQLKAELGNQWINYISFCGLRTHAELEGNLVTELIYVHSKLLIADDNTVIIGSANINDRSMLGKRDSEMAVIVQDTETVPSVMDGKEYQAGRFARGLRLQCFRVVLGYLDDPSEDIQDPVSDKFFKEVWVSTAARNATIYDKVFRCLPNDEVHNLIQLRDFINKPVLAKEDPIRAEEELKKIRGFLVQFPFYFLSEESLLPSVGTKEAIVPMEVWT

in vivo = conditions: mouse, ip, 10 mg/kg
PLD2 = PLD2 (Homo sapiens, UniProt O14939); conditions: purified PLD proteins; data comparable to cell-based assay
[2] = not given; remark: listed apart in the source

PLD2, sequence (O14939 whole entry, species assumed): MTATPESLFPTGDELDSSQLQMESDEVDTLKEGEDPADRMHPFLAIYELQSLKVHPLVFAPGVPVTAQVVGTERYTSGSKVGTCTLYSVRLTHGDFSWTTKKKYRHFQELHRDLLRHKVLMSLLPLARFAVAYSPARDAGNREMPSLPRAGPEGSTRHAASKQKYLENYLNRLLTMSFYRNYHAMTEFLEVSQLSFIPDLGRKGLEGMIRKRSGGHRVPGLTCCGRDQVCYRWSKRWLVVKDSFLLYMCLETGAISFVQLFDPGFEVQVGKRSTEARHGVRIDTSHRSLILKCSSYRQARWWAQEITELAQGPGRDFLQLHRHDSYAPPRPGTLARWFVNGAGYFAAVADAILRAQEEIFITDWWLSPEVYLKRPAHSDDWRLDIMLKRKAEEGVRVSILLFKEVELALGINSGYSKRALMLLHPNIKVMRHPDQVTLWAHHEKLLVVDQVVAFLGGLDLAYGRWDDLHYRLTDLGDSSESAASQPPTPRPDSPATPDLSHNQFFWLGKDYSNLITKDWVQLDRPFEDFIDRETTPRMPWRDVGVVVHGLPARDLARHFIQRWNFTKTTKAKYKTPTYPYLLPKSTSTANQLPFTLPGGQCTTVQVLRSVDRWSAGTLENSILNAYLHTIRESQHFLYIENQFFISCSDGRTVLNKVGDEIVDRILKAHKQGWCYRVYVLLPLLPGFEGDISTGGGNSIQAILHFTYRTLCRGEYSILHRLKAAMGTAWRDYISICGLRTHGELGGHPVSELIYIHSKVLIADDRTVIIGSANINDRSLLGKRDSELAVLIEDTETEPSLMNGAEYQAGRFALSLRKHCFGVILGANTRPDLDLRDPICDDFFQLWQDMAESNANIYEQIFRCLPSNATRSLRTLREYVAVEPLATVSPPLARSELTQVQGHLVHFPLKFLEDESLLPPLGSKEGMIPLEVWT

| Structure (SMILES) | Effect on U87-MG cell viability (U87-MG cells) | Rat CLHEP | Invasive migration in U87-MG cells [1] | Dose at which decrease in invasive migration reached statistical significance ([1]; U87-MG cells) | Concentration up to which PLD1 is not inhibited (PLD1) | PLD1 inhibition (PLD1) | AUC at 6 h (in vivo) | Direct action on PLD2 in biochemical assay (PLD2) | Human CLHEP [2] |
| --- | --- | --- | --- | --- | --- | --- | --- | --- | --- |
| O=C(NCCN1CCC2(CC1)C(=O)NCN2c1cccc(F)c1)c1ccc(F)c(F)c1 [ML298, 3,4-Difluoro-N-(2-(1-(3-fluorophenyl)-4-oxo-1,3,8-triazaspiro[4.5]decan-8yl)ethyl)benzamide] | no effect | 60.9 mL/min/kg | dose-dependent decrease; also recorded: decreased invasive migration | 10 µM | > 20 µM | no inhibition of PLD1 | 1.55 µM·h | acted directly on PLD2 | 17.8 mL/min/kg |
| Cc1cccc(N2CNC(=O)C23CCN(C[C@H](C)NC(=O)c2ccc(Br)cc2)CC3)c1 [ML299] | no effect |  | dose-dependent decrease; also recorded: decreased invasive migration |  |  |  |  |  |  |
